Target: T1, collagen type 1 of the scaffold (CMI) (Bos taurus, UniProt P02453+P02465)
T1 construct: the CMI is build out of collagen type 1 from bovine origin (FDA approved implant); from tissue; host or cells: bovine-derived collagen, in the form of the commercial collagen meniscal implant (CMI) scaffold
Test: Immunofluorescence (IF) assay for PDGF-BB on the collagen meniscal implant (CMI)
Type: binding, bovine
Description: Pictures are merged z-stack files from confocal microscopy.
(1) Complete assay; (2) Blank assay; (3) Assay without peptide; (4) Assay without growth factor (PDGF); (5) Assay without primary antibody. Note: PDGF appears to bind well to collagen type 1 of the scaffold even without pre-incubation of the bi-peptide structure. Therefore the heparin-binding domain part of the peptide for PDGF can't be evaluated according to this assay.
FIG. 10 is an image of a Tile confocal scan of the CMI in the IF assay for PDGF-BB. The complete surface of the CMI was able to bind with recombinant PDGF.

T1 sequence (P02453 162-1217 limits assumed): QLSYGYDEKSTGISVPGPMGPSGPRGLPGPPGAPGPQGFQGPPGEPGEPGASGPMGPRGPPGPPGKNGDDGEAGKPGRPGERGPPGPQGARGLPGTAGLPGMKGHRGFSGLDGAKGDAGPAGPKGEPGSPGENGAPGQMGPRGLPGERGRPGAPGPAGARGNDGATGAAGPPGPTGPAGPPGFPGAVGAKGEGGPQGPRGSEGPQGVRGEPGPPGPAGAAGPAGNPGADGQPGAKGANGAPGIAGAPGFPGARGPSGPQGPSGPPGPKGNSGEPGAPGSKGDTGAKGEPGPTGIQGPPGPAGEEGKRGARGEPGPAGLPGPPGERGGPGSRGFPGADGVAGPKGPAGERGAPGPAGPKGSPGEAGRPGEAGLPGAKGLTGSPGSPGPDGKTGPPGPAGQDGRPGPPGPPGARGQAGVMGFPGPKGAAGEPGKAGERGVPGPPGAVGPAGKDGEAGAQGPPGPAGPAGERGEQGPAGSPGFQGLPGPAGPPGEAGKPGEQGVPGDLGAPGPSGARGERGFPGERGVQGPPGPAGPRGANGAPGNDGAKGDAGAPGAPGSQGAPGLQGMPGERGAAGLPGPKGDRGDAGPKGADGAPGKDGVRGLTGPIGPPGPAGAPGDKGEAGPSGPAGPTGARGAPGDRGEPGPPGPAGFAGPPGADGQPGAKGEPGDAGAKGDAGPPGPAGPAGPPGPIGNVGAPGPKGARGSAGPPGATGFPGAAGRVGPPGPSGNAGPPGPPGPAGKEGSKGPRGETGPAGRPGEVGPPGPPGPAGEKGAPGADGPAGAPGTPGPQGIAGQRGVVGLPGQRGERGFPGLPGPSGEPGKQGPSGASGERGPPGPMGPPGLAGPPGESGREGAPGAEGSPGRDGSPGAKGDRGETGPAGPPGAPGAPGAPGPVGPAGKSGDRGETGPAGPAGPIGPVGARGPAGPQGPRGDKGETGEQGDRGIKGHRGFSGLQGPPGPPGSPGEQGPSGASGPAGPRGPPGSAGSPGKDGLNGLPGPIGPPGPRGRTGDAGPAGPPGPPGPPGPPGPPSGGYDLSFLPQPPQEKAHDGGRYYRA
T1 sequence (P02465 80-1117 limits assumed): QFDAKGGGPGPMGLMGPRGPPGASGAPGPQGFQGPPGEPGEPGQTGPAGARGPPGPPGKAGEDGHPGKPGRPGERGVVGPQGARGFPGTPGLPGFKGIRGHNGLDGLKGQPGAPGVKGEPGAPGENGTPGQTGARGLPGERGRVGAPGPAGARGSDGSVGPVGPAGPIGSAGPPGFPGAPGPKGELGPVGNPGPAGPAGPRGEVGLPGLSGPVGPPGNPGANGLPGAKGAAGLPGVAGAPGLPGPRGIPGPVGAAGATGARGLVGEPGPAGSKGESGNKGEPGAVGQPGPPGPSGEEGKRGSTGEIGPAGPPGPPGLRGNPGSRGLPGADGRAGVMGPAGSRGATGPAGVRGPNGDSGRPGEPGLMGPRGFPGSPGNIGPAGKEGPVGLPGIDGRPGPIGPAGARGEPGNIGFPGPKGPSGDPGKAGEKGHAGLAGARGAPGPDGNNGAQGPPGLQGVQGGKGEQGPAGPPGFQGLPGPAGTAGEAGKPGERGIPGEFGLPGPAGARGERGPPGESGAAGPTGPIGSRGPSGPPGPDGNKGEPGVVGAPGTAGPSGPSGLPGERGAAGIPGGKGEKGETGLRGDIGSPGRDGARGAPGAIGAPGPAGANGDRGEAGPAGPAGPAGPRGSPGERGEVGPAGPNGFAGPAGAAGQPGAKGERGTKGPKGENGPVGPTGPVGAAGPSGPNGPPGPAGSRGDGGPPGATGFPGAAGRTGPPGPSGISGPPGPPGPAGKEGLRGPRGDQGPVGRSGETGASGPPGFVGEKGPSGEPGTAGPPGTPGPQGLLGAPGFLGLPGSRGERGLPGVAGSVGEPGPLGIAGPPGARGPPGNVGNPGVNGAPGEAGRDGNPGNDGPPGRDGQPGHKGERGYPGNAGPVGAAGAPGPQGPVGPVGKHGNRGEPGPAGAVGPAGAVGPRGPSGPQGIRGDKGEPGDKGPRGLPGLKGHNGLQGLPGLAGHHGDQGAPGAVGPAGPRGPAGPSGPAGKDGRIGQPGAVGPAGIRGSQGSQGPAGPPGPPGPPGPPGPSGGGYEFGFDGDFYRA

- binding of PDGF to collagen type 1 of the scaffold (IF assay on CMI, without pre-incubation of the bi-peptide structure): bind well
- binding of recombinant PDGF to the CMI surface (tile confocal scan of the CMI, complete surface): able to bind
Substance: PDGF
